Laboratory results as given in US20260000692A1, “Substituted N-(Pyridin-2-yl)Acetamide Derivatives as CDK12/13 Inhibitors” (Aurigene Oncology Limited, priority 2022, published 2026).

Target: CDK12 (Homo sapiens, UniProt Q9NYV4)
Assay: Biochemical assay for CDK12 (LANCE TR-FRET, IC50 determination)
Details: for IC50: CDK12, IC50 class, read-out: IC50 μM (in range); for inhibition at 10 µM: compound at 10 μM, read-out: CDK12 % Inhibition @ 10 μM
Outline: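 30 nM CDK12 phosphorylated 100 nM ULight-4E-BP1 (Thr37/Thr46) peptide at 100 µM ATP, as printed, in HEPES pH 7.5 buffer with MgCl2 and DTT. Compound and enzyme were preincubated 60 min, then reacted 60 min at room temperature before stopping with EDTA and Eu anti-phospho antibody. TR-FRET 665/615 ratio gave sigmoidal IC50 fits.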

Sequence of CDK12 (Q9NYV4 whole entry): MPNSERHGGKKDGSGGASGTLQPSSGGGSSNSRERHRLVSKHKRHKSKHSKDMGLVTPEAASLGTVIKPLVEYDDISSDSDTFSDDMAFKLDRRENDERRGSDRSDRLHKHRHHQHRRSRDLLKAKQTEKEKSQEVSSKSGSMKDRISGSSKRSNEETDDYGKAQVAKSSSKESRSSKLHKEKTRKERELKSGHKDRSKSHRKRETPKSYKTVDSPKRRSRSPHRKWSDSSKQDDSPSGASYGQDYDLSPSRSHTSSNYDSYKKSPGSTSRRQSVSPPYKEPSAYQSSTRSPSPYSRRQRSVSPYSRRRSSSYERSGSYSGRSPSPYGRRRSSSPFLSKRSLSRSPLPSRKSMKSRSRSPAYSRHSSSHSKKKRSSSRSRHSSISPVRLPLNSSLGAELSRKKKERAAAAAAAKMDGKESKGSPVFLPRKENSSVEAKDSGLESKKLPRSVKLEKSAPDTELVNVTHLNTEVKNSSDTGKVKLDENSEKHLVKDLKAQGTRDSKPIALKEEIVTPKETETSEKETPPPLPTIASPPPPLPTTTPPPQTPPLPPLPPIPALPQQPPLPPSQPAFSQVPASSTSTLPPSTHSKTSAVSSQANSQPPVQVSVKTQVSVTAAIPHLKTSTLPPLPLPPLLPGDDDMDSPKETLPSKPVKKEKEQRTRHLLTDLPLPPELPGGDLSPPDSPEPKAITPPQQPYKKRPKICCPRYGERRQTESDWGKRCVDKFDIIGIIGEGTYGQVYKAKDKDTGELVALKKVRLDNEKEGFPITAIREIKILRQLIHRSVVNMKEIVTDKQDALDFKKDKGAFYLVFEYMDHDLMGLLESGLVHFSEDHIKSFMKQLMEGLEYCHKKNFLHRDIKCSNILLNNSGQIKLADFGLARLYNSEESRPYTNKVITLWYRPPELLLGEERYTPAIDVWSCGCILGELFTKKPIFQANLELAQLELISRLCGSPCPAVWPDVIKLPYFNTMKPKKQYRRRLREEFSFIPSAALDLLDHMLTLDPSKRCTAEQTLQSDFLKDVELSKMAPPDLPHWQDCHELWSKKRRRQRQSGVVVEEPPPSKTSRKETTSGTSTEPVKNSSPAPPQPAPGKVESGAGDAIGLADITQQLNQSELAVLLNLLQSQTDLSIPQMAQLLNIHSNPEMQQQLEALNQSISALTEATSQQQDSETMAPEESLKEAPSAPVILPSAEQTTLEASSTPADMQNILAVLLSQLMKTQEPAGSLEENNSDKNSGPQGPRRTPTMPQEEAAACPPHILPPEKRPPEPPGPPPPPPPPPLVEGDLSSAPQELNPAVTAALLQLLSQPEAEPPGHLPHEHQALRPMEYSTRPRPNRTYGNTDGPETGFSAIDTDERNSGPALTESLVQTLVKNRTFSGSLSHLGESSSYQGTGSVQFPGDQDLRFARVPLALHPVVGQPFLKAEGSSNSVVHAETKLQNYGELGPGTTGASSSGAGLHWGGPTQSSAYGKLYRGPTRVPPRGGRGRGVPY
Sequence of CDK12 (O75909 whole entry partner): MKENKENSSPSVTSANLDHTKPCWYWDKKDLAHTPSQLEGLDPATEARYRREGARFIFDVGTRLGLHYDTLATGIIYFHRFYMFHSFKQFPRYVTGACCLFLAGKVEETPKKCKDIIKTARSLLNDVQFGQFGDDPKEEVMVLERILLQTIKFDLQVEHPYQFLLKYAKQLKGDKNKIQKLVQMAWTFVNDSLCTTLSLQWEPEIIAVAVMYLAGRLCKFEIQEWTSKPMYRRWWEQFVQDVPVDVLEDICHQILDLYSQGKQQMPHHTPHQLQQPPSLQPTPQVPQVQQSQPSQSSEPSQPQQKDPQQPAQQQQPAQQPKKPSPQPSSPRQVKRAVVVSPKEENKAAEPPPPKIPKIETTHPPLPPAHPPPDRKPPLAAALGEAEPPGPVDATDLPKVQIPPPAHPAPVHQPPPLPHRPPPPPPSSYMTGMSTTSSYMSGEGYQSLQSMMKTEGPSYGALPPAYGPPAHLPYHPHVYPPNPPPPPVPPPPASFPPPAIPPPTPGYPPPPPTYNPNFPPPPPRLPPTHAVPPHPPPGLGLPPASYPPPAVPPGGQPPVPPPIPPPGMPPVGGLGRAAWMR

Row | SMILES | IC50 [µM] | inhibition at 10 µM [%]
1 | COc1cc(NC(=O)Cc2ccc(C3=CCCN(C#N)C3)cn2)ncc1Cl [Compound 111, N-(5-chloro-4-methoxypyridin-2-yl)-2-(1′-cyano-1′,2′,5′,6′-tetrahydro-[3,3′-bipyridin]-6-yl)acetamide] | 0.01 to 0.1 | 94
2 | COc1cc(NC(=O)Cc2ccc(C3=CCCN(C#N)C3)cc2Cl)ncc1Cl [Compound 112, 2-(2-chloro-4-(1-cyano-1,2,5,6-tetrahydropyridin-3-yl)phenyl)-N-(5-chloro-4-methoxypyridin-2-yl)acetamide] | 0.01 to 0.1 | 90
3 | COc1cc(NC(=O)Cc2ccc(C3=CCCN(C#N)C3)cc2F)ncc1Cl [Compound 113, N-(5-chloro-4-methoxypyridin-2-yl)-2-(4-(1-cyano-1,2,5,6-tetrahydropyridin-3-yl)-2-fluorophenyl)acetamide] | 0.01 to 0.1 | 92
4 | COc1cc(NC(=O)Cc2ccc(C3=CCCN(C#N)C3)cc2)ncc1Cl [Compound 114, N-(5-chloro-4-methoxypyridin-2-yl)-2-(4-(1-cyano-1,2,5,6-tetrahydropyridin-3-yl)phenyl)acetamide] | < 0.01 | 91
5 | COc1cc(NC(=O)Cc2ccc(C3=CC4CN(C#N)CC4C3)cc2)ncc1Cl (centres unmarked) [Compound 115, N-(5-chloro-4-methoxypyridin-2-yl)-2-(4-(2-cyano-1,2,3,3a,4,6a-hexahydrocyclopenta[c]pyrrol-5-yl)phenyl)acetamide] | 0.01 to 0.1 | 98
6 | COc1cc(NC(=O)Cc2ccc(C3=CCCN(C#N)C3)c(OC)c2)ncc1Cl [Compound 116, N-(5-chloro-4-methoxypyridin-2-yl)-2-(4-(1-cyano-1,2,5,6-tetrahydropyridin-3-yl)-3-methoxyphenyl)acetamide] | – | 23
7 | COc1cc(NC(=O)Cc2cnc(C3=CCCN(C#N)C3)c(OC)c2)ncc1Cl [Compound 117, N-(5-chloro-4-methoxypyridin-2-yl)-2-(1′-cyano-3-methoxy-1′,2′,5′,6′-tetrahydro-[2,3′-bipyridin]-5-yl)acetamide] | < 0.01 | 88
8 | CN1CC[C@H](Oc2cc(NC(=O)Cc3ccc(C4CCN(C#N)CC4)nc3)ncc2Cl)C1 [Compound 118, (S)-N-(5-chloro-4-((1-methylpyrrolidin-3-yl)oxy)pyridin-2-yl)-2-(6-(1-cyanopiperidin-4-yl)pyridin-3-yl)acetamide] | > 0.1 | 81
9 | CN1CC[C@@H](Oc2cc(NC(=O)Cc3ccc(C4CCN(C#N)CC4)nc3)ncc2Cl)C1 [Compound 119, (R)-N-(5-chloro-4-((1-methylpyrrolidin-3-yl)oxy)pyridin-2-yl)-2-(6-(1-cyanopiperidin-4-yl)pyridin-3-yl)acetamide] | > 0.1 | 78
10 | COc1cc(NC(=O)Cc2cnc(C3=CCN(C#N)CC3)c(OC)c2)ncc1Cl [Compound 120, N-(5-chloro-4-methoxypyridin-2-yl)-2-(1′-cyano-3-methoxy-1′,2′,3′,6′-tetrahydro-[2,4′-bipyridin]-5-yl)acetamide] | < 0.01 | 89
11 | COc1cc(NC(=O)Cc2cnc(C3CCN(C#N)CC3)c(OC)c2)ncc1Cl [Compound 121, N-(5-chloro-4-methoxypyridin-2-yl)-2-(6-(1-cyanopiperidin-4-yl)-5-methoxypyridin-3-yl)acetamide] | < 0.01 | 82
12 | COc1cc(CC(=O)Nc2cc(O[C@@H]3CCOC3)c(Cl)cn2)cnc1C1=CCN(C#N)CC1 [Compound 122, (R)-N-(5-chloro-4-((tetrahydrofuran-3-yl)oxy)pyridin-2-yl)-2-(1′-cyano-3-methoxy-1′,2′,3′,6′-tetrahydro-[2,4′-bipyridin]-5-yl)acetamide] | < 0.01 | 90
13 | COc1cc(CC(=O)Nc2cc(O[C@@H]3CCOC3)c(Cl)cn2)cnc1C1CCN(C#N)CC1 [Compound 123, (R)-N-(5-chloro-4-((tetrahydrofuran-3-yl)oxy)pyridin-2-yl)-2-(6-(1-cyanopiperidin-4-yl)-5-methoxypyridin-3-yl)acetamide] | < 0.01 | 86
14 | COc1cc(NC(=O)Cc2ccc(C3CCN(C#N)CC3)nc2)ncc1C1CC1 [Compound 124, 2-(6-(1-cyanopiperidin-4-yl)pyridin-3-yl)-N-(5-cyclopropyl-4-methoxypyridin-2-yl)acetamide] | > 0.1 | 86
15 | CN1CCC[C@H](Oc2cc(NC(=O)Cc3ccc(C4CCN(C#N)CC4)nc3)ncc2Cl)C1 [Compound 125, (S)-N-(5-chloro-4-((1-methylpiperidin-3-yl)oxy)pyridin-2-yl)-2-(6-(1-cyanopiperidin-4-yl)pyridin-3-yl)acetamide] | > 0.1 | 72
16 | CN1CCC[C@@H](Oc2cc(NC(=O)Cc3ccc(C4CCN(C#N)CC4)nc3)ncc2Cl)C1 [Compound 126, (R)-N-(5-chloro-4-((1-methylpiperidin-3-yl)oxy)pyridin-2-yl)-2-(6-(1-cyanopiperidin-4-yl)pyridin-3-yl)acetamide] | > 0.1 | 52

Row | SMILES | IC50 [µM] | inhibition at 10 µM [%]
17 | COc1cc(NC(=O)Cc2ccc(C3=CCN(C#N)CC3)cn2)ncc1Cl [Compound 127, N-(5-chloro-4-methoxypyridin-2-yl)-2-(1′-cyano-1′,2′,3′,6′-tetrahydro-[3,4′-bipyridin]-6-yl)acetamide] | 0.01 to 0.1 | 86
18 | CNC(=O)[C@H](C)Oc1cc(NC(=O)Cc2cnc(C3CCN(C#N)CC3)c(OC)c2)ncc1Cl [Compound 128, (S)-2-((5-chloro-2-(2-(6-(1-cyanopiperidin-4-yl)-5-methoxypyridin-3-yl)acetamido)pyridin-4-yl)oxy)-N-methylpropanamide] | < 0.01 | 83
19 | CN1CCC(Oc2cc(NC(=O)Cc3ccc(C4CCN(C#N)CC4)nc3)ncc2Cl)CC1 [Compound 129, N-(5-chloro-4-((1-methylpiperidin-4-yl)oxy)pyridin-2-yl)-2-(6-(1-cyanopiperidin-4-yl)pyridin-3-yl)acetamide] | 0.01 to 0.1 | 94
20 | COc1cc(NC(=O)Cc2ccc(-c3ccc(CNC#N)nc3)nc2)ncc1Cl [Compound 130, N-(5-chloro-4-methoxypyridin-2-yl)-2-(6′-(cyanamidomethyl)-[2,3′-bipyridin]-5-yl)acetamide] | 0.01 to 0.1 | 95
21 | COc1cc(NC(=O)Cc2ccc(-c3ccc(CN(C)C#N)nc3)nc2)ncc1Cl [Compound 131, N-(5-chloro-4-methoxypyridin-2-yl)-2-(6′-((N-methylcyanamido)methyl)-[2,3′-bipyridin]-5-yl)acetamide] | 0.01 to 0.1 | 93
22 | COc1cc(NC(=O)Cc2ccc(-c3ccc(CN(C#N)C(C)C)nc3)nc2)ncc1Cl [Compound 132, N-(5-chloro-4-methoxypyridin-2-yl)-2-(6′-((N-isopropylcyanamido)methyl)-[2,3′-bipyridin]-5-yl)acetamide] | > 0.1 | 93
23 | COc1cc(NC(=O)Cc2ccc(C34CCN(C#N)CC3C4)nc2)ncc1Cl (centres unmarked) [Compound 133] | < 0.01 | 94
24 | COc1cc(NC(=O)Cc2ccc(N3CCN(C#N)CC3)nc2)ncc1Cl [Compound 134, N-(5-chloro-4-methoxypyridin-2-yl)-2-(6-(4-cyanopiperazin-1-yl)pyridin-3-yl)acetamide] | 0.01 to 0.1 | 82
25 | CP(C)(=O)c1cc(NC(=O)Cc2ccc(C3=CCCN(C#N)C3)nc2)ncc1Cl [Compound 135, N-(5-chloro-4-(dimethylphosphoryl)pyridin-2-yl)-2-(1′-cyano-1′,2′,5′,6′-tetrahydro-[2,3′-bipyridin]-5-yl)acetamide] | > 0.1 | 78
26 | N#CN1CC=C(c2ccc(CC(=O)Nc3cc(OC4CC5(CNC5)C4)c(Cl)cn3)cn2)CC1 [Compound 137, N-(4-((2-azaspiro[3.3]heptan-6-yl)oxy)-5-chloropyridin-2-yl)-2-(1′-cyano-1′,2′,3′,6′-tetrahydro-[2,4′-bipyridin]-5-yl)acetamide] | 0.01 to 0.1 | 89
27 | CC1(C)CCC(Oc2cc(NC(=O)Cc3ccc(C4=CCN(C#N)CC4)nc3)ncc2Cl)CN1 (centres unmarked) [Compound 138, N-(5-chloro-4-((6,6-dimethylpiperidin-3-yl)oxy)pyridin-2-yl)-2-(1′-cyano-1′,2′,3′,6′-tetrahydro-[2,4′-bipyridin]-5-yl)acetamide] | > 0.1 | 80
28 | CC1(C)CC(Oc2cc(NC(=O)Cc3ccc(C4=CCN(C#N)CC4)nc3)ncc2Cl)CCN1 (centres unmarked) [Compound 139, N-(5-chloro-4-((2,2-dimethylpiperidin-4-yl)oxy)pyridin-2-yl)-2-(1′-cyano-1′,2′,3′,6′-tetrahydro-[2,4′-bipyridin]-5-yl)acetamide] | 0.01 to 0.1 | 95
29 | COc1cc(NC(=O)Cc2ccc(-c3ccc(C#N)nc3)nc2)ncc1Cl [Compound 140, N-(5-chloro-4-methoxypyridin-2-yl)-2-(6′-cyano-[2,3′-bipyridin]-5-yl)acetamide] | > 0.1 | 83
30 | COc1cc(NC(=O)Cc2ccc(-c3cnc(C#N)nc3)nc2)ncc1Cl [Compound 141, N-(5-chloro-4-methoxypyridin-2-yl)-2-(6-(2-cyanopyrimidin-5-yl)pyridin-3-yl)acetamide] | 0.01 to 0.1 | 92
31 | COc1cc(NC(=O)Cc2ccc(-c3ccnc(C#N)c3)nc2)ncc1Cl [Compound 142, N-(5-chloro-4-methoxypyridin-2-yl)-2-(2′-cyano-[2,4′-bipyridin]-5-yl)acetamide] | 0.01 to 0.1 | –
32 | CNC(=O)C(C)Oc1cc(NC(=O)Cc2ccc(-c3ccc(C#N)nc3)nc2)ncc1Cl (centres unmarked) [Compound 143, 2-((5-chloro-2-(2-(6′-cyano-[2,3′-bipyridin]-5-yl)acetamido)pyridin-4-yl)oxy)-N-methylpropanamide] | 0.01 to 0.1 | 92
